According to US9949979B2, “Use of inhibitors of the activity or function of PI3K” (NOVARTIS AG, priority 2011, dated 2018):

What was measured:
[1] = target: T1, PI3K alpha (Homo sapiens, UniProt P42336); assay: Enzymatic PI3K alpha isoform inhibition (lipid kinase activity, Kinase-Glo); type: biochemical; settings: Enzymatic Assay
T1 construct: His tag (C); made in house; host or cells: baculovirus; Tn5 (Trichoplusia ni) or TiniPro insect cells
Method: (§1) 1 Determination of Enzymatic PI3K Alpha and PI3K Delta Isoform Inhibition
(§2) 1.1 Test of Lipid Kinase Activity
(§3) The kinase reaction is performed in a final volume of 50 μl per well of a half area COSTAR, 96 well plate. The final concentrations of ATP and phosphatidyl inositol in the assay are 5 μM and 6 μg/mL, respectively. The reaction is started by the addition of PI3 kinase, e.g. PI3 kinase δ.
(§4) p110δ. The components of the assay are added per well as follows: • 10 μl test compound in 5% DMSO per well in […]. • Total activity is determined by addition 10 μl of 5% vol/vol DMSO in the first 4 wells of column 1 and the last 4 wells of column 12. • The background is determined by addition of 10 μM control compound to the last 4 wells of column 1 and the first 4 wells of column 12. • 2 mL ‘Assay mix’ are prepared per plate: • 1.912 mL of HEPES assay buffer • 8.33 μl of 3 mM stock of ATP giving a final concentration of 5 μM per well • 1 μl of [^33P]ATP on the activity date giving 0.05 μCi per well • 30 μl of 1 mg/mL PI stock giving a final concentration of 6 μg/mL per well • 5 μl of 1 M stock MgCl2 giving a final concentration of 1 mM per well • 20 μl of the assay mix are added per well. • 2 mL ‘Enzyme mix’ are prepared per plate (x* μl PI3 kinase p110β in 2 mL of kinase buffer). The ‘Enzyme mix’ is kept on ice during addition to the assay plates. The volume of enzyme is dependent on the enzymatic activity of the batch in use. • 20 μl ‘Enzyme mix’ are added/well to start the reaction. • The plate is then incubated at room temperature for 90 minutes. • The reaction is terminated by the addition of 50 μl WGA-SPA bead (wheat germ agglutinin-coated Scintillation Proximity Assay beads) suspension per well. • The assay plate is sealed using TopSeal-S (heat seal for polystyrene microplates, PerkinElmer LAS [Deutschland] GmbH, Rodgau, Germany) and incubated at room temperature for at least 60 minutes. • The assay plate is then centrifuged at 1500 rpm for 2 minutes using the Jouan bench top centrifuge (Jouan Inc., Nantes, France). • The assay plate is counted using a Packard TopCount, each well being counted for 20 seconds.
(§5) The final concentrations of ATP and phosphatidyl inositol (PI) in the assay are 1 μM and 10 μg/mL, respectively. The reaction is started by the addition of ATP.
(§6) The components of the assay are added per well as follows:
(§7) IC50 is determined by a four parameter curve fitting routine that comes along with “excel fit”.
(§8) To start the reaction, 10 μl of 10 nM PI3 kinase and 5 μg/mL 1-alpha-phosphatidylinositol (PI) are added into each well followed by 10 μl of 2 μM ATP. The reaction is performed until approx 50% of the ATP is depleted, and then stopped by the addition of 20 μl of Kinase-Glo solution (Promega Corp., Madison, Wis., USA). The stopped reaction is incubated for 5 minutes and the remaining ATP is then detected via luminescence. IC50 values are then determined.

[2] = target: PI3K delta (Homo sapiens, UniProt O00329); assay: Enzymatic PI3K delta isoform inhibition (lipid kinase activity, Kinase-Glo); type: biochemical; set-up: for the full-length p110-d subunit are generated and fused by overlapping PCR; His tag (C); made in house; host or cells: baculovirus; Tn5 (Trichoplusia ni) or TiniPro insect cells; settings: Enzymatic Assay
Method: as §1, §2, §3, §4, §5, §6, §7, §8

[3] = system: TLR9; assay: TLR9-induced IL-6 in murine splenocytes (CpG1826, ELISA); type: cell-based, C57BL/6 mice; settings: Mus musculus, Splenocyte; read-out: TLR9-ligand induced IL-6 in murine splenocytes IC50
Method: 2.2 Determination of TLR9-Induced IL-6 in Murine Splenocytes
Spleens were dissected from C57BL/6 mice immediately following euthanasia. Excess fat was trimmed from the spleens prior to mashing the spleen through a […] cell strainer using a plunger from a 5 ml syringe. A single cell suspension was prepared and the volume was adjusted to 15 ml in a 50 ml Falcon tube using cold PBS. Cells were centrifuged at 1500 rpm for 5 minutes at 4° C. degrees prior to removal of supernatant and re-suspension in 5 ml of red blood cell lysis buffer per spleen and incubation for 5 minutes at room temperature. Ice cold PBS (30 ml) was added to the cells prior to centrifugation at 1500 rpm for 5 minutes at 4° C. The supernatant was removed and the cells were washed twice with 40 ml of murine splenocyte culture media (MSCM). […] Cells were re-suspended in 10-20 ml of MSCM and counted using a Countess cell counter. […]
After overnight culture, cells were transferred to 96-well V-bottomed plates and centrifuged at 2000 rpm for 5 minutes at room temperature. Subsequently 150 μl of each culture supernatant was transferred to 96-well flat-bottomed plates and […] were measured using commercially available mouse IL-6 sandwich ELISA kit (R&D systems). […] IL-6 levels were measured using a SpectraMax 190 Plate Reader (450 nm) and analyzed using SoftMax Pro and GraphPad Prism software.

[4] = system: TLR9; assay: TLR9-induced IFNalpha in human PBMC (CpG2216, AlphaLISA); type: cell-based; settings: read-out: TLR9-ligand induced IFNα in human PBMC IC50
Method: (§9) 2.4 Determination of TLR9-Induced IFNalpha in Human Peripheral Blood Mononuclear Cells (PBMCs) and Isolated Plasmacytoid Dendritic Cells (pDCs)
Human blood (ca. 75 ml) was collected in 10 S-Monovette tubes containing Heparin (S-Monovette 7.5 mL NH Heparin 16 IU/mL blood; Starstedt). Leucosep™ tubes (30 mL #227290; Greiner Bio-one) were prepared by addition of 15 ml lymphocyte separation medium LSM1077™ per tube (#J15-004; PAA Laboratories) and centrifugation for 30 sec at 1000 g. Some 25 ml blood was transferred to Leucosep™ tubes following dilution with equal parts of PBS (without Ca2+/Mg2+; #14190-094). […] The PBMC were counted using a Countess® Automated cell counter (sample was pre-diluted 1:10 in Media, prior to the addition of equal volume (10 μl) of Trypan Blue). […]
(§10) Compounds were pre-diluted in 100% v/v DMSO (#41640-100 mL; Sigma-Aldrich), followed by transfer in Media (to achieve a final DMSO concentration of 0.25%). […] Plates were briefly centrifuged (200×g for 2 min at 22° C.) and supernatant samples (30 μl) removed for quantification of IFNα levels.
For quantification of IFNalpha the human interferon AlphaLISA Kit (#AL264F) from PerkinElmer was used. […] Data were collected for analysis and quantification of IFNα levels.
Data were analysed using Excel XL fit 4.0 (Microsoft) with XLfit add-in (IDBS; version 4.3.2). […]

[5] = system: TLR9; assay: TLR9-induced IFNalpha in isolated human pDCs (CpG2216, AlphaLISA); type: cell-based; settings: read-out: TLR9-ligand induced IFNα in human pDCs IC50
Method: as §9
Human PBMCs were prepared using Buffy Coats as source material from healthy donations (approx. 50 ml obtained from Blutspendezentrum SRK Basel) and processed as indicated above. […]
as §10
For quantification of IFNalpha the human interferon AlphaLISA Kit (#AL264F) from PerkinElmer was used. […] After incubation, the plates were read with an EnVision™ multiplate reader equipped with the ALPHA option using the instrument's own “AlphaScreen standard settings” (e.g. total measurement time: 550 ms, Laser 680 nm excitation time: 180 ms, mirror: D640 as, emission filter: M570w, center wavelength 570 nm, bandwidth 100 nm, transmittance 75%). Data were collected for analysis and quantification of IFNα levels.
Data were analysed using Excel XL fit 4.0 (Microsoft) with XLfit add-in (IDBS; version 4.3.2). Specific IFNα concentrations were determined following extrapolation to standard curves using human IFNα B (2b). […]

Sequence of PI3K delta (O00329 with tags, fused parts or gaps limits assumed): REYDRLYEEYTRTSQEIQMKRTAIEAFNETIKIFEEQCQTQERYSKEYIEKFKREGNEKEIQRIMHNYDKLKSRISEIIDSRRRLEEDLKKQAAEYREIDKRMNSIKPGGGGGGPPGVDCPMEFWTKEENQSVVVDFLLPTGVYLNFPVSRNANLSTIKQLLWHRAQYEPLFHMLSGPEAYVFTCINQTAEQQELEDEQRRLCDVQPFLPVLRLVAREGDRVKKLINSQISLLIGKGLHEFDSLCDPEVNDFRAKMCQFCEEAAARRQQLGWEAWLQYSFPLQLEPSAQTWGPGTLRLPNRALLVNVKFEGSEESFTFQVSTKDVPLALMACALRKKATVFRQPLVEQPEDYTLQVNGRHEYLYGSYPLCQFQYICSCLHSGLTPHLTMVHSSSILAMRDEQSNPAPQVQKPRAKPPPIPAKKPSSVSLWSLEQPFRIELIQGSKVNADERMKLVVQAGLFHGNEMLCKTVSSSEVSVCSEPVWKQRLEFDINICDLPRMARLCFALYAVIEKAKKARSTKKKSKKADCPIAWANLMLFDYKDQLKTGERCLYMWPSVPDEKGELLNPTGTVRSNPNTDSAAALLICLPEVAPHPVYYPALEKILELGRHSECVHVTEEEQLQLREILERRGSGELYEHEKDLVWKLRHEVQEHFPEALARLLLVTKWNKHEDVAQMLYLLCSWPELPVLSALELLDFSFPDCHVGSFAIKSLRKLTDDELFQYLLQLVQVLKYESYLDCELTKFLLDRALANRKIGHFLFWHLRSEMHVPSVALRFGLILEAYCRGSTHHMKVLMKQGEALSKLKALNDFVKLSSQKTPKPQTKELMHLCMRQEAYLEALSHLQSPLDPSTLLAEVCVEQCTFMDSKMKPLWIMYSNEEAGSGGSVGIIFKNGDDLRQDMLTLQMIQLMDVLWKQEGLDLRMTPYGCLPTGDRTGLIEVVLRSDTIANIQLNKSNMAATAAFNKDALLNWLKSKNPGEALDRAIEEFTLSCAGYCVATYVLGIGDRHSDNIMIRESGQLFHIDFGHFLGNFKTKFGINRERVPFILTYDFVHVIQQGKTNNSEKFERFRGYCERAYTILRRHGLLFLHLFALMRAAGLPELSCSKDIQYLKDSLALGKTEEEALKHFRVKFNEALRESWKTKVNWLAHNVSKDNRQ
T1 sequence (P42336 with tags, fused parts or gaps limits assumed): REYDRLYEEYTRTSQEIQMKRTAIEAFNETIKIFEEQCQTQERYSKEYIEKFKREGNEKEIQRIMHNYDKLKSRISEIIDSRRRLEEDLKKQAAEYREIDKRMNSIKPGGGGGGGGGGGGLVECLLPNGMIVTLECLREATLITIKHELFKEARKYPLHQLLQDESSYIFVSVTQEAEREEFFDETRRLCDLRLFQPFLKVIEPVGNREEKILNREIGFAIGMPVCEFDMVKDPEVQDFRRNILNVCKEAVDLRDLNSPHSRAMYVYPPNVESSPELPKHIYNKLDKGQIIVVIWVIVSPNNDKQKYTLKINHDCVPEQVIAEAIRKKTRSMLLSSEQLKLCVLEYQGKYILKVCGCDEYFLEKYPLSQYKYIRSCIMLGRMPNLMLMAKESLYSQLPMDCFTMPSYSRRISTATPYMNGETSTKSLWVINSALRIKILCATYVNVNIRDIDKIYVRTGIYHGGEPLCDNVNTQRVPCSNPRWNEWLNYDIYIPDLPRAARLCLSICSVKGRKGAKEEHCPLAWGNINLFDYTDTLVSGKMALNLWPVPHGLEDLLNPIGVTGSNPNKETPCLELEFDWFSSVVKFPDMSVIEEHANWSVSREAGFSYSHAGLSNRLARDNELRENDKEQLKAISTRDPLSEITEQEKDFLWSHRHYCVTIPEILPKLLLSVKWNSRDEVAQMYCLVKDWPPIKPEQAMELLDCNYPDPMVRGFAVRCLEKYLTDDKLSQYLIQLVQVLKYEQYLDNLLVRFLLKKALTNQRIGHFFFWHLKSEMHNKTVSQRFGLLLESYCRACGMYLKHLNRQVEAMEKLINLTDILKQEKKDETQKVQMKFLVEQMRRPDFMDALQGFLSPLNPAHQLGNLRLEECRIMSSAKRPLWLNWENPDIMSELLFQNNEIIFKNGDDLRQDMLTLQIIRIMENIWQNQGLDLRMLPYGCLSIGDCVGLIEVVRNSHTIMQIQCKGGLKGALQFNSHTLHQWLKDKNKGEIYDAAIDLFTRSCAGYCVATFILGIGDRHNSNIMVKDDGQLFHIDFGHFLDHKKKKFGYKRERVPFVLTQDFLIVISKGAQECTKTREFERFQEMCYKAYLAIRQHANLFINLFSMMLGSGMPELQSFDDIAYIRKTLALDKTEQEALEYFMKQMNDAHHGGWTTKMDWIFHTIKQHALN

CC(=O)N1CCN(C(=O)c2cccc(-c3ncnc4ccc(-c5ccc(C)nc5)cc34)c2)CC1 [6′]
IC50 [1]: 589 nM | IC50 [2]: 8.62 nM

COc1ccc(-c2ccc3ncnc(-c4cccc(C(=O)N5CCN(C(C)=O)CC5)c4)c3c2)cc1C(F)(F)F [9′]
IC50 [1]: 1400 nM | IC50 [2]: 10 nM

Cc1ccc(-c2ccc3ncnc(-c4cccc(C(=O)N5CCN(C)CC5)c4)c3c2)cn1 [19′]
IC50 [1]: 678 nM | IC50 [2]: 11.5 nM

COc1ccc(-c2ccc3ncnc(-c4cccc(C(=O)N5CCN(C)CC5)c4)c3c2)cc1S(=O)(=O)N1CCCC1 [22′, (3-{6-[4-Methoxy-3-(pyrrolidine-1-sulfonyl)-phenyl]-quinazolin-4-yl}-phenyl)-(4-methyl-piperazin-1-yl)-methanone]
IC50 [1]: 790 nM | IC50 [2]: 11.5 nM

CC1(C)CN(C(=O)c2cncc(-c3ncnc4ccc(-c5cnc(N)nc5)cc34)c2)CCO1 [65′]
IC50 [1]: 640 nM | IC50 [2]: 10 nM

COc1ccc(-c2ccc3ncnc(-c4cccc(C(=O)N5CCNC(C)(C)C5)c4)c3c2)cn1 [88′]
IC50 [2]: ≤ 2.67 nM

COc1ncc(N2CCc3ncnc(O[C@H]4CCN(C(=O)C5CCOCC5)C4)c3C2)cc1C [Example 1, {(S)-3-[6-(6-Methoxy-5-methyl-pyridin-3-yl)-5,6,7,8-tetrahydro-pyrido[4,3-d]pyrimidin-4-yloxy]-pyrrolidin-1-yl}-(tetrahydro-pyran-4-yl)-methanone]
IC50 [3]: 327 nM | IC50 [4]: 211 nM | IC50 [5]: 50 nM
